Measurements from patent US4568689A, “Pharmaceutical preparation for the treatment of hypertensive disease and myocardial infarction” (priority 1983, dated 1986).

Experiments:
[1] = system: neoepinephrine model of infarction (focal necrosis) of myocardium in rats; assay: survival of rats with the neoepinephrine model of infarction; format: in vivo, rats of the Wistar line; conditions: 25 mg/kg subcutaneously, 7 days
Method: The study of the effect produced by the preparation according to the present invention on survival of animals with a neoepinephrine model of infarction was effected in comparison with the prior art preparations--obzidan and finoptin.
The formation of a neoepinephrine model of infarction (focal necrosis) of myocardium in rats was effected by way of an every-day subcutaneous administration of a 0.1% solution of neoepinephrine in the dose of 3 mg/kg for 7 days to rats of the Wistar line with a mass of 160-200 g. The test preparations were subcutaneously administered to the rats in the form of a 1.25% aqueous solution in the dose of 25 mg/kg 0.5 hour after injection of neoepinephrine also for 7 days.

[2] = side effects or contraindications on administration
[3] = system: arterial pressure of spontaneously hypertensive rats; assay: effect of the oral form on arterial pressure, spontaneously hypertensive rats; format: in vivo
Method: Also studied was the efficiency of the oral form of the preparation according to the present invention. […] The efficiency was studied within the range of doses from 50 to 100 mg/kg.

C[N+]1(C)CC(CC(=O)[O-])C(=O)N1 (centres unmarked) [Preparation of this invention, (1,1-dimethyl-3-oxopyrazolin-1-io-4-yl)acetate]
Percentage of survival ([1]; after 19 days): 92%
Number of survived animals after 19 days ([1]; groups initially 12 animals): 11
side effects or contraindications [2]: No side effects or contraindications
Variation of arterial pressure, systolic ([3]; 50 mg/kg per os, 4 hours): -3 % of the initial
Variation of arterial pressure, diastolic ([3]; 75 mg/kg per os, 1 hour): -17 % of the initial
Variation of arterial pressure, systolic ([3]; 75 mg/kg per os, 1 hour): -10 % of the initial
Variation of arterial pressure, diastolic ([3]; 75 mg/kg per os, 2 hours): -18 % of the initial
superiority in duration of action over nifedipine ([3]; 75 mg/kg per os, vs nifedipine): at least 3 times
Variation of arterial pressure, diastolic ([3]; 100 mg/kg per os, 1 hour): -8 % of the initial
Variation of arterial pressure, systolic ([3]; 100 mg/kg per os, 1 hour): -7 % of the initial
Variation of arterial pressure, diastolic ([3]; 100 mg/kg per os, 24 hours): -3 % of the initial
